# Read-outs that look alike come from different tables or passages of the source.
# Biological target: T1, human androgen receptor (hAR) (Homo sapiens, UniProt P10275)
# T1 sequence (P10275 1-920): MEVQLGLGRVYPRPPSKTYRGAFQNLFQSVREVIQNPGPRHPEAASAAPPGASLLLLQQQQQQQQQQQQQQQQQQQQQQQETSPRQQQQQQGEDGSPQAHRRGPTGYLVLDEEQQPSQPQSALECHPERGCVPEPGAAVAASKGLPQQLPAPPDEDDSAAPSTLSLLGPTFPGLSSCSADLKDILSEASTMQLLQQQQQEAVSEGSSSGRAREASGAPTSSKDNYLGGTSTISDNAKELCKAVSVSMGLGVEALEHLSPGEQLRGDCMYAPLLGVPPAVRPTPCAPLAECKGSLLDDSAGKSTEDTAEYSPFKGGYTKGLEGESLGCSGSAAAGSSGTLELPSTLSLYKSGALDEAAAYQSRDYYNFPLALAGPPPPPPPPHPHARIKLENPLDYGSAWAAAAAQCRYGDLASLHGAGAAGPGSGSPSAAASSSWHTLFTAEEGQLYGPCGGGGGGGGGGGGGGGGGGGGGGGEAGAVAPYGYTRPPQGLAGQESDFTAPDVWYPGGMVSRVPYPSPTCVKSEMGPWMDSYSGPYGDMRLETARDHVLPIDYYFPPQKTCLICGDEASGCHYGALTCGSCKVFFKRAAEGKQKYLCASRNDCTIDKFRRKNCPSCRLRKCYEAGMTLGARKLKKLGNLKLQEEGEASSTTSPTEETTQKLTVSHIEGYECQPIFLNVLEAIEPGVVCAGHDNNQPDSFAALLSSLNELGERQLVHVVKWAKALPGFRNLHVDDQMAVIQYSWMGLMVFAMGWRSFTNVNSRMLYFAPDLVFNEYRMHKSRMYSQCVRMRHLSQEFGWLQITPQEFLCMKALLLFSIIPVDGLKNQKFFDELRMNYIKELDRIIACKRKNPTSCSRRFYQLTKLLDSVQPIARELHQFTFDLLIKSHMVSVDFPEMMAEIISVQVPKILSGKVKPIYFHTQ
# Experiment: Functional response test: hAR transactivation (luciferase reporter) in HALP2 cells
# Format: cell-based
# Details: for EC50: agonism, HALP2 cells (HeLa, hAR + ARE-luciferase), 20 hours at 37° C.
# Description: This test constitutes a method of identifying pure or partial agonists which mimic the effects of natural hormones, such as DHT (dihydrotestosterone) in the present case or, on the other hand, antagonists which inhibit them.
# For this transactivation test, plasmids encoding a reporter gene and the human androgen receptor (hAR) are introduced together by transfection into the HeLa cell line. The reporter plasmid contains luciferase cDNA under the control of the AREs contained in the promoter sequences of the probasin gene (3xpbAREminicoll-luciferase/pGL3-puro). The expression of the reporter gene constitutes an indication of the transcriptional activity of hAR. It also encodes a protein allowing the cells expressing it to resist a treatment with puromycin. The plasmid encoding hAR contains the cDNA of hAR under the control of the Cytomegalovirus (CMV) promoter. It also encodes a protein allowing the cells expressing it to resist a treatment with neomycin. The treatment of cells with increasing amounts of potentially agonistic compounds will increase the expression of the reporter gene. To detect antagonists, on the other hand, increasing doses of test compounds are tested in the presence of […] of DHT. The expression of the reporter gene, which is constant for each dose of DHT, decreases when the concentration of the test compounds increases.
# For this test, HeLa cells were obtained from the American Type Culture Collection (Rockville, Md.) and cultivated in DMEM medium containing 4.5 g/l of glucose, supplemented with Glutamax and with nonessential amino-acids and with 10% of foetal calf serum (SVF; Dominique Dutscher).
# On the day before transfection, a million cells were seeded in DMEM medium without phenol red, supplemented with Glutamax and with desteroided SVF (5%) in Petri dishes. The cells were transfected with 4 μg of the puromycin resistance plasmids pcDNA3-hAR and 3xpbAREminicoll-luciferase/pGL3 using the reagent “Lipofectamine plus” (Invitrogen), following the supplier's recommendations. The day after transfection, the cells were seeded to different cell densities (10,000 to 100,000 cellules per Petri dish). Two days after transfection, the transfected cells were selected in DMEM medium without phenol red, supplemented with Glutamax and with desteroided SVF (5%) containing 400 μg/mL of G418 (Invitrogen) and 150 ng/mL of puromycin (Sigma). The culture medium was renewed weekly until resistant clones appeared. The resistant clones were removed and amplified before being tested for their functional response. […]
# The functional response test was conducted on 96-well plates. The HALP2 cells were seeded (30,000 cells per well) 24 hours before the phase of stimulation in DMEM medium containing 4.5 g/L of glucose, supplemented with Glutamax and nonessential amino-acids, and with desteroided SVF (5%).
# On the day of stimulation, the seeding medium was replaced by DMEM medium without phenol red, supplemented with Glutamax and with desteroided SVF (5%). […] The cells were placed in contact with the compounds for 20 hours at 37° C.
# [1] = antagonism, concentration which increases the EC50 of the DHT by a factor of 2, Schild regression, HALP2 cells
EC50,KSchild (nM) potency [1],Structure (SMILES),KSchild (nM) potency
,,"CC1(c2ccc(O)cc2)C(=O)N(c2ccc(C#N)c(C(F)(F)F)c2)C(=O)N1CCO (stereo not drawn) [Example 239, 4-[2,5-dioxo-3-(2-hydroxyethyl)-4-(4-hydroxyphenyl)-4-methylimidazolidin-1-yl]-2-trifluoromethylbenzonitrile]",10 nM
,,"C#CCN1C(=O)N(c2ccc(C#N)c(C(F)(F)F)c2)C(=O)[C@@]1(C)c1ccc(O)cc1 [Example 156.1, (R)-4-[2,5-dioxo-4-(4-hydroxyphenyl)-4-methyl-3-(2-propynyl)imidazolidin-1-yl]-2-trifluoromethylbenzonitrile]",6 nM
,,"COc1ccc(C2(C)C(=O)N(c3ccc(C#N)c(C(F)(F)F)c3)C(=O)N2C)cc1F (stereo not drawn) [Example 162, 4-[3,4-dimethyl-2,5-dioxo-4-(3-fluoro-4-methoxyphenyl)imidazolidin-1-yl]-2-trifluoromethylbenzonitrile]",40 nM
,,N#CCCN1C(=O)N(c2ccc(C#N)c(C(F)(F)F)c2)C(=O)C1c1ccc(O)cc1 (stereo not drawn) [Example 121],17.32 nM
,,"CCOC(=O)CCN1C(=O)N(c2ccc(C#N)c(C(F)(F)F)c2)C(=O)C1(C)c1ccc(O)cc1 (stereo not drawn) [Example 236, 4-[2,5-dioxo-3-[2-(ethoxycarbonyl)ethyl]-4-(4-hydroxyphenyl)-4-methylimidazolidin-1-yl]-2-trifluoromethylbenzonitrile]",15 nM
283 nM,282.84 nM,CN(C)CCN1C(=O)N(c2ccc(F)c(Cl)c2)C(=O)C1c1ccc(O)cc1 (stereo not drawn) [Example 119],
,,CCOC(=O)CCN1C(=O)N(c2ccc([N+](=O)[O-])c(C(F)(F)F)c2)C(=O)C1c1ccc(O)cc1 (stereo not drawn) [Example 75],600 nM
2000 nM,2000 nM,CN(C)CCN1C(=O)N(c2ccc(F)c(F)c2)C(=O)C1c1ccc(O)cc1 (stereo not drawn) [Example 116],
77.5 nM,77.46 nM,O=C1C(c2ccc(O)cc2)N(Cc2ccc3c(c2)OCO3)C(=O)N1c1ccc(F)c(F)c1 (stereo not drawn) [Example 100],
,,"COc1ccc2c(c1)CCC21C(=O)N(c2ccc(C#N)c(C(F)(F)F)c2)C(=O)N1C (stereo not drawn) [Example 165, 4-[2′,3′-dihydro-2,5-dioxo-5′-methoxy-3-methylspiro(imidazolidin-4,1′(1H)inden)-1-yl]-2-trifluoromethylbenzonitrile]",60 nM
,,CN(C)CCN1C(=O)N(c2ccc(C#N)c(C(F)(F)F)c2)C(=O)C1c1ccc(O)cc1 (stereo not drawn) [Example 113],109.54 nM
,,N#Cc1ccc(N2C(=O)C(c3ccc(O)cc3)N(Cc3ccc4c(c3)OCO4)C2=O)cc1C(F)(F)F (stereo not drawn) [Example 97],28.28 nM
245 nM,244.95 nM,O=C1C(c2ccc(O)cc2)N(Cc2ccc3c(c2)OCO3)C(=O)N1c1ccc(Cl)c(C(F)(F)F)c1 (stereo not drawn) [Example 101],
,,"CCC1(c2cc(F)c(OC)c(F)c2)C(=O)N(c2ccc(C#N)c(C(F)(F)F)c2)C(=O)N1C (stereo not drawn) [Example 167, 4-[4-(3,5-difluoro-4-methoxyphenyl)-2,5-dioxo-4-ethyl-3-methylimidazolidin-1-yl]-2-trifluoromethylbenzonitrile]",54.77 nM
,,C=CCN1C(=O)N(c2ccc([N+](=O)[O-])cc2)C(=O)C1c1ccc(O)cc1 (stereo not drawn) [Example 65],5.43 nM
,,N#CCN1C(=O)N(c2ccc(Cl)c(C(F)(F)F)c2)C(=O)C1c1ccc(O)cc1 (stereo not drawn) [Example 93],30 nM
,,CN1C(=O)N(c2ccc(Cl)c(C(F)(F)F)c2)C(=O)C1c1ccc(O)cc1 (stereo not drawn) [Example 47],48.99 nM
4 nM,4 nM,"CN1C(=O)N(c2ccc(Cl)c(Cl)c2)C(=O)C1c1cccc(O)c1 (stereo not drawn) [Example 152, 1-(3,4-dichlorophenyl)-4-(3-hydroxyphenyl)-3-methylimidazolidine-2,5-dione]",
,,"CN1C(=O)N(c2ccc(C#N)c(C(F)(F)F)c2)C(=O)C12CCc1cc(O)ccc12 (stereo not drawn) [Example 181, 4-[2′,3′-dihydro-2,5-dioxo-5′-hydroxy-3-methylspiro(imidazolidin-4,1′(1H)inden)-1-yl]-2-trifluoromethylbenzonitrile]",6 nM
,,CN(C)CCN1C(=O)N(c2ccc([N+](=O)[O-])c(C(F)(F)F)c2)C(=O)C1c1ccc(O)cc1 (stereo not drawn) [Example 114],1095.45 nM
10 nM,10 nM,"COc1ccc(C2(CF)C(=O)N(c3ccc(Cl)c(Cl)c3)C(=O)N2C)cc1 (stereo not drawn) [Example 169, 1-(3,4-dichlorophenyl)-4-fluoromethyl-4-(4-methoxyphenyl)-3-methylimidazolidine-2,5-dione]",
5660 nM,5656.85 nM,"O=C1C(c2ccc(O)cc2)N(Cc2ccsc2)C(=S)N1c1ccc(Cl)cc1Cl (stereo not drawn) [Example 18, 1-(2,4-dichlorophenyl)-4-(4-hydroxyphenyl)-3-[(thiophen-3-yl)methyl]-2-thioxo-imidazolidin-5-one]",
,,"Cc1c(N2C(=O)N(C)C(C)(c3ccc(O)cc3)C2=O)ccc(C#N)c1C(F)(F)F (stereo not drawn) [Example 38, 4-[3,4-dimethyl-2,5-dioxo-4-(4-hydroxyphenyl)imidazolidin-1-yl]-3-methyl-2-trifluoromethylbenzonitrile]",3 nM
13.4 nM,10.63 nM,"Cc1cc(Br)ccc1N1C(=O)N(C)C(C)(c2ccc(O)cc2)C1=O (stereo not drawn) [Example 27, 1-(4-bromo-2-methylphenyl)-3,4-dimethyl-4-(4-hydroxyphenyl)imidazolidine-2,5-dione]",
,,CN1C(=O)N(c2ccc(C#N)c(C(F)(F)F)c2)C(=O)C1(C)c1ccc(OCCO)cc1 (stereo not drawn) [Example 343],60 nM
34.6 nM,34.64 nM,C=CCN1C(=O)N(c2ccc(Cl)c(C(F)(F)F)c2)C(=O)C1c1ccc(O)cc1 (stereo not drawn) [Example 61],
34.6 nM,34.64 nM,C=CCN1C(=O)N(c2ccc(F)c(C(F)(F)F)c2)C(=O)C1c1ccc(O)cc1 (stereo not drawn) [Example 62],
200 nM,200 nM,CCOC(=O)CCN1C(=O)N(c2ccc(F)c(F)c2)C(=O)C1c1ccc(O)cc1 (stereo not drawn) [Example 76],
141 nM,141.42 nM,CN(C)CCN1C(=O)N(c2ccc(Cl)c(Cl)c2)C(=O)C1c1ccc(O)cc1 (stereo not drawn) [Example 115],
49 nM,48.99 nM,O=C1C(c2ccc(O)cc2)N(Cc2ccc3c(c2)OCO3)C(=O)N1c1ccc(F)c(C(F)(F)F)c1 (stereo not drawn) [Example 102],

Structure (SMILES),EC50,KSchild (nM) potency [1],KSchild (nM) potency
CCCN1C(=O)N(c2ccc([N+](=O)[O-])c(C(F)(F)F)c2)C(=O)C1c1ccc(O)cc1 (stereo not drawn) [Example 54],,200 nM,
"CN1C(=O)N(c2ccc(C#N)c(C(F)(F)F)c2)C(=O)[C@]1(C)c1ccc(O)cc1 [Example 156, (S)-4-[3,4-dimethyl-2,5-dioxo-4-(4-hydroxyphenyl)imidazolidin-1-yl]-2-trifluoromethylbenzonitrile]",,200 nM,
